Data as given in US8519183B2, “Uses for amino acid anticonvulsants” (Research Corporation Technologies, Inc., priority 2000, dated 2013).
Several values for one entry are separate records, joined by “and”; a condition that tells them apart may be missing. Equal values may be shown once.

Legend:
[1] = test system: ICR derived male or female mice; assay: Analgesia, Acetic Acid Writhing; format: in vivo; conditions: 100 mg/kg PO
Source text: In the first animal study in Example 1, the degree of pain experienced by the mice after injection by acetic acid is seen by the number of writhes. If the mice experience no pain, there is no writhing.
The protocol is based on the acetic acid writhing test in mice, developed by R. Koster, et al. Fed. Proc, 18, 412 […], and referred to a Koster test and Hunskarai, S., et al., J. Neuroscience Meth. 14: 69-76, 1985.
Reduction in the number of writhes by 50 percent or more (≧50%) per group of animals observed during the 5 to 10 minute period after acetic acid administration, relative to a vehicle treated control group, indicated analgesic activity.

[2] = test system: ICR derived male or female mice; assay: formalin induced hind paw licking; format: in vivo; conditions: 300 mg/kg PO
Method: The degree of pain is determined by measuring the decrease in the amount of time the animal spends licking the formalin-injected paw after administration of the drug.
Reduction of the induced hind paw licking time recorded during the following 20 to 30 minutes period by 50 percent or more (50%) indicated analgesic activity.

[3] = test system: Sprague Dawley male rats; assay: general behavioral assessment at intraperitoneal doses of 30 to 100 mg/kg; format: in vivo
Source text: General behavioral assessments were made during each period of observation and include: tactile allodynia (vocalization/agitation induced by light touch applied to the body surface), spontaneous vocalization, biting and chewing of body surface, loss of hind limb placing and stepping reflex, loss of hind limb weight bearing, and loss of righting reflex. All assessments, were noted as “present”, “absent” or ranked according to a graded scale.
Four rats were examined at intraperitoneal (IP) doses of 30 to 100 mg/kg.

[4] = test system: Holtzman male rats; assay: NMDA Induced Hyperalgesia (thermal escape latency); format: in vivo
Method: Holtzman male rats weighing 275 to 325 grams were prepared with lumbar intrathecal catheters under isoflurane anesthesia. The catheters were externalized on the back of the head. Four to five days after implant, the animals were employed.
NMDA administration was accomplished using a gear driven microinjection syringe connected to the spinal catheter by a length of calibrated PE-90 tubing. The catheter plug was immediately replaced to avoid back flow and the rat was replaced in its testing box.
A modified Hargreaves box was used which allows the direction of a focused light beam on the underface of the paw through a glass surface upon which the rat stands. Surface temperature was maintained at 30° C. Withdrawal of the paw was taken as the response. Lack of response within twenty seconds was cause to terminate the test and assign that score.
The rats were placed on the thermal escape box and allowed to acclimate for 30 minutes prior to testing. A measurement was taken for each hindpaw to establish an average baseline latency (counted as time=0). (2R)-2-(acetylamino)-N-[(4-fluorophenyl)methyl]-3-methoxypropanamide solution, that is, test product in this experiment, was given at an intrathecal dose of 1 μg/10 μl 10 minutes prior to intrathecal NMDA. A control group was given an identical amount of saline 10 minutes prior to intrathecal NMDA. Measurements were then made at 15, 30, 60, 120, 240 and 360 minutes after intrathecal NMDA injection. General behavior assessments were made during each period of observation and include: tactile allodynia (vocalization/agitation induced by light touch applied to the body surface), spontaneous vocalization, biting and chewing of body surface, loss of hind limb placing and stepping reflex, loss of hind limb weight bearing and loss of righting reflex.

[5] = test system: Sprague Dawley male rats; assay: Chung model of neuropathy, tactile threshold (von Frey hairs); format: in vivo
Method: Sprague Dawley male rats weighing 275 to 325 grams was used in this experiment. In this experiment, the response to neuropathic pain was determined. The neuropathic preparation used to induce an allodynic state is the surgical procedure described by Kim and Chung in Pain, 1992, 50, 355-363 (1992) and outlined in Chaplain, et al. in J. Neurosci. Meth., 1994, 53, […]. Briefly, the left L5 and L6 spinal nerves were isolated adjacent to the vertebral column and ligated with 6-0 silk suture distal to the dorsal root ganglion under isoflurane anesthesia. The rats were allowed a minimum 7 day postoperative recovery period before placement in the study.
Testing groups consisted of 6 rats per group. Each group received test article, (2R)-2-acetyl-amino)-N-[(4-fluorophenyl)methyl]-3-methoxypropanamide (hereinafter “test article”), in one of three concentrations delivered intraperitoneally; the high concentration was 50 mg/kg, the medium concentration was 30 mg/kg and the low concentration was 20 mg/kg. One group of 6 rats received saline control solution at a volume equal to that used for test article.
To assess tactile thresholds, rats were placed in a clear plastic, wire mesh-bottomed cage, divided into individual compartments. Animals were allowed to accommodate and then baseline thresholds were taken prior to drug treatment. To determine the 50% mechanical threshold for paw withdrawal, von Frey hairs were applied to the plantar mid-hindpaw, avoiding the tori (footpads). The eight von Frey hairs used are designated by [log(10*force required to bend hair, mg)] and range from 0.4-15.1 grams. Each hair was pressed perpendicularly against the paw with sufficient force to cause slight bending, and held for approximately 6-8 seconds. […] Stimuli were presented successively until either six data points were collected, or the maximum or minimum stimulus was reached. […] If a change in response occurred, either “−” to “+” or “+” to “−”, causing a change in the direction of stimulus presentation from descending to ascending or vice-versa, four additional data points were collected subsequent to the change. The resulting pattern of responses were tabulated and the 50% response threshold computer using the formula: log(threshold, mg×10)=Xf+kh
wherein: • Xf=value of the last von Frey hair applied; • k=correction factor based on response pattern (from calibration table) • h=mean distance in log units between stimuli.
Based on observations on normal, —operated rats and sham-operated rats, the cutoff of a 15.1-g hair is selected as the upper limit for testing.
The test was performed to establish an average baseline value, counted as time 0; then again at 15, 30, 60, 120 and 240 minutes after the dosing by the control saline solution or the test article.

[6] = molecular target: NMDA receptor (Mus musculus, UniProt P35438); assay: NMDA receptor agonism/antagonism after ICVT administration; conditions: ICVT 1 μg/mouse, N 3
Method: Test substance was administered ICVT (intracerebroventricular, 30 μg in 5 μl/mouse). The appearance of convulsions/mortality in 2 or more (≧2) of 3 ICR derived male or female mice weighing 22±2 gms within the 5 minutes thereafter would indicate NMDA receptor agonism. At a dose where no significant agonist activity was seen within 5 minutes, ability to inhibit NMDA (60 mg/kg IV)—induced Tonic convulsions/mortality in 2 or more (≧2) of 3 ICR derived male or female mice weighing 22±gms within the following 5 minutes indicated NMDA receptor antagonist activity.

[7] = molecular target: T1, serotonin 5-HT1A receptor (Rattus norvegicus, UniProt P19327); assay: 5-MeODMT-induced head twitch; format: in vivo, rats; conditions: 10 mg/kg PO, 3 rats
T1 construct: from tissue; host or cells: living Long Evans derived rat (in vivo)
T1 sequence (P19327 1-422): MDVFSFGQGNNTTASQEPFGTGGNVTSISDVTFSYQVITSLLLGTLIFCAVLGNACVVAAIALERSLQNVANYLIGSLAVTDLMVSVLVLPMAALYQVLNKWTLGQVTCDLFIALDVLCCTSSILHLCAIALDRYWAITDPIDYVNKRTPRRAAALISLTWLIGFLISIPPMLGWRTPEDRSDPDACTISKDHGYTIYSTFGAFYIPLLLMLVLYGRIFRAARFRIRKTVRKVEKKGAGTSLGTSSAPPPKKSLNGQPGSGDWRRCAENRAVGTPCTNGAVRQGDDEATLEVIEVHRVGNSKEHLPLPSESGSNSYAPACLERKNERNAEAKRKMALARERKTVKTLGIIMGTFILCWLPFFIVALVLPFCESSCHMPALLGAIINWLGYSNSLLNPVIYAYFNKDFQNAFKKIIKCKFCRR
Method: Test substance was administered PO (30 mg/kg) to a group of 3 Long Evans derived male or female rats weighing 150±20 gms one hour before injection of 5-MeODMT (5-methoxy-N,N-dimethyltryptamine, 3 mg/kg IP).

[8] = test system: male ICR mice; assay: radiant heat induced tail flick response; format: in vivo
Method: Groups of 4 male ICR mice weighing 22±2 gms were employed. A dose (30 mg/kg) of test compound dissolved in a vehicle of saline was administered intraperitoneally. The control group received vehicle alone. At pretreatment (0 minute) a focused beam of radiant heat was applied to the middle dorsal surface of the tail to elicit a tail flick response within 6-7.5 seconds in pre-treated animals. A maximum cut-off time of 15 seconds was set. The time required to elicit a pain response was recorded for each animal at 0 and 30 minutes following administration of test compound. Prolongation by 50 percent or more (≧50%) of the time required to elicit a tail flick indicated analgesic activity.

## CC(=O)Oc1ccccc1C(=O)O [Aspirin, reference compound]
[1]; group of 3 mice
  No. of Writhes, X ± SEM: X ± SEM 0 ± 0
[1]; one hour before acetic acid, 5 to 10 minute period
  No. of Writhes (individual animal): 0
[1]; relative to vehicle control
  % Inh.: 100%
[2]
  % Inh.: 72%
[2]; 5 mice
  Licking Time, Ave.: 36 s

## COC[C@@H](NC(C)=O)C(=O)NCc1ccc(F)cc1 [test article, (2R)-2-(acetylamino)-N-[(4-fluorophenyl)methyl]-3-methoxypropanamide]
[3]; 30 mg/kg IP, one rat
  behavioral observation: no behavioral deficit
[3]; 50 mg/kg IP, one rat, lasted 60 minutes
  behavioral observation: slightly catatonic
[3]; 60 mg/kg IP, one rat, within 15 minutes, severe exopthalmos, euthanized
  behavioral observation: catatonic and displayed abnormal ambulation
[3]; 90 mg/kg IP, one rat, within 15 minutes, flaccid, severe exopthalmos, euthanized
  behavioral observation: catatonic and unable to right itself
[3]; 100 mg/kg IP, one rat, within 15 minutes, euthanized
  behavioral observation: laterally recumbent displaying seizures and bleeding from the nose
[3]; Fifteen mg/kg, previously shown
  behavioral observation: no observable affect
[4]; intrathecal 1 μg/10 μl 10 minutes prior to intrathecal NMDA, out to 20 minutes post NMDA injection, n=2
  thermal escape latency, baseline maintained: about 14 second
[4]; intrathecal 1 μg/10 μl, later than 20 minutes post NMDA injection, n=2
  thermal escape latency after dropping: approximately 10 seconds
[4]; preliminary data
  anti-hyperalgesic action in NMDA induced thermal hyperalgesia (in words): measurable anti-hyperalgesic actions
[5]; 15 mg/kg, previous study
  effect on the Chung Model (in words): no effect
[5]; 20 mg (per kg) IP, 6 rats
  tactile threshold after dosing (increase from approximately 2): ~5 grams
[5]; 30 mg IP, for approximately 1 hour
  rats appearing sedated: Four of 6
[5]; 30 mg/kg IP, 6 rats
  tactile threshold after dosing (increase from approximately 2): ~5 grams
[5]; 50 mg/kg IP, 6 rats
  tactile threshold after dosing (increase from 2): 11 grams
[5]; 50 mg/kg IP, for approximately 1 hour post injection
  rats appearing sedated: 6 of 6
[5]; IP, Chung Model
  duration of effect after injection: approximately 2 hours
[5]; delivered intraperitoneally
  reversal of tactile allodynia (in words): significant reversal of tactile allodynia

## CN[C@H](CC(=O)O)C(=O)O [NMDA, N-methyl-D-aspartate, reference compound]
[6]
  Agonism (mice with convulsions/mortality within 5 minutes): 3

## CN1C(=O)CN=C(c2ccccc2)c2cc(Cl)ccc21 [Diazepam, reference compound]
[7]
  Head Twitch, Ave.: 2

## CN1CC[C@]23c4c5ccc(O)c4O[C@H]2[C@@H](O)C=C[C@H]3[C@H]1C5 [Morphine, reference compound]
[8]; 10 mg/kg IP
  % Inh.: 100%
[8]; 10 mg/kg IP, 30 minutes after administration, cut-off 15 seconds
  Response Time 30 Min. (individual animal): >15
[8]; 10 mg/kg IP, mean of 4 mice
  Response Time 30 Min., X: 15.0
[8]; 10 mg/kg IP, mean of 4 mice, pretreatment
  Response Time 0 Min., X: 6.9
[8]; 10 mg/kg IP, pretreatment (0 minute)
  Response Time 0 Min. (individual animal): 7.4 (2×) and 6.5 and 6.4
[8]; morphine control
  radiant heat induced tail flick response (in words): positive response
